Measured values: ChEMBL document CHEMBL4308841, “Synthesis, in vitro antiproliferative activity, and kinase inhibitory effects of pyrazole-containing diarylureas and diarylamides” (Eur J Med Chem, 2018)

Assays:
UACC-257 = assay: Growth inhibition of human UACC257 cells assessed as cell growth at 0.01 uM incubated for 48 hrs by sulforhodamine B assay relative to control; assay type: functional; settings: UACC-257, 48 h, read-out: Activity
PC-3 = assay: Growth inhibition of human PC3 cells incubated for 48 hrs by sulforhodamine B assay; assay type: functional, cell-based; settings: PC-3, 48 h
OVCAR-3 = assay: Growth inhibition of human OVCAR3 cells incubated for 48 hrs by sulforhodamine B assay; assay type: functional, cell-based; settings: OVCAR-3, 48 h
SF-539 = assay: Growth inhibition of human SF539 cells assessed as cell growth at 1 uM incubated for 48 hrs by sulforhodamine B assay relative to control; assay type: functional; settings: SF-539, 48 h, read-out: Activity
M14 = assay: Growth inhibition of human M14 cells incubated for 48 hrs by sulforhodamine B assay; assay type: functional, cell-based; settings: M14, 48 h
MOLT-4 = assay: Growth inhibition of human MOLT4 cells assessed as cell growth at 1 uM incubated for 48 hrs by sulforhodamine B assay relative to control; assay type: functional; settings: MOLT-4, 48 h, read-out: Activity
CCRF-CEM = assay: Growth inhibition of human CCRF-CEM cells assessed as cell growth at 100 uM incubated for 48 hrs by sulforhodamine B assay relative to control; assay type: functional; settings: read-out: Activity
HL-60(TB) = assay: Growth inhibition of human HL-60(TB) cells assessed as cell growth at 0.1 uM incubated for 48 hrs by sulforhodamine B assay relative to control; assay type: functional; settings: HL-60, 48 h, read-out: Activity
HCC 2998 = assay: Growth inhibition of human HCC2998 cells assessed as cell growth at 100 uM incubated for 48 hrs by sulforhodamine B assay relative to control; assay type: functional; settings: HCC 2998, 48 h, read-out: Activity
RXF 393 [1] = assay: Growth inhibition of human RXF393 cells assessed as cell growth at 1 uM incubated for 48 hrs by sulforhodamine B assay relative to control; assay type: functional; settings: RXF 393, 48 h, read-out: Activity
SR = assay: Growth inhibition of human SR cells incubated for 48 hrs by sulforhodamine B assay; assay type: functional, cell-based
786-0 [2] = assay: Growth inhibition of human 786-0 cells assessed as cell growth at 0.01 uM incubated for 48 hrs by sulforhodamine B assay relative to control; assay type: functional; settings: 786-0, 48 h, read-out: Activity
786-0 [3] = assay: Growth inhibition of human 786-0 cells incubated for 48 hrs by sulforhodamine B assay; assay type: functional, cell-based; settings: 786-0, 48 h
NCI-H460 = assay: Growth inhibition of human NCI-H460 cells incubated for 48 hrs by sulforhodamine B assay; assay type: functional, cell-based; settings: NCI-H460, 48 h
MDA-MB-468 = assay: Growth inhibition of human MDA-MB-468 cells assessed as cell growth at 0.01 uM incubated for 48 hrs by sulforhodamine B assay relative to control; assay type: functional; settings: MDA-MB-468, 48 h, read-out: Activity
BT-549 [4] = assay: Growth inhibition of human BT549 cells assessed as cell growth at 0.01 uM incubated for 48 hrs by sulforhodamine B assay relative to control; assay type: functional; settings: BT-549, 48 h, read-out: Activity
SW-620 = assay: Growth inhibition of human SW620 cells assessed as cell growth at 0.01 uM incubated for 48 hrs by sulforhodamine B assay relative to control; assay type: functional; settings: SW-620, 48 h, read-out: Activity
MCF7 = assay: Growth inhibition of human MCF7 cells assessed as cell growth at 1 uM incubated for 48 hrs by sulforhodamine B assay relative to control; assay type: functional; settings: MCF7, 48 h, read-out: Activity
A498 [5] = assay: Growth inhibition of human A498 cells incubated for 48 hrs by sulforhodamine B assay; assay type: functional, cell-based; settings: A498, 48 h
ACHN = assay: Growth inhibition of human ACHN cells assessed as cell growth at 1 uM incubated for 48 hrs by sulforhodamine B assay relative to control; assay type: functional; settings: read-out: Activity
A498 [6] = assay: Growth inhibition of human A498 cells assessed as cell growth at 0.1 uM incubated for 48 hrs by sulforhodamine B assay relative to control; assay type: functional; settings: A498, 48 h, read-out: Activity
HCT-116 = assay: Growth inhibition of human HCT116 cells assessed as cell growth at 1 uM incubated for 48 hrs by sulforhodamine B assay relative to control; assay type: functional; settings: HCT-116, 48 h, read-out: Activity
IGROV-1 = assay: Growth inhibition of human IGROV1 cells incubated for 48 hrs by sulforhodamine B assay; assay type: functional, cell-based; settings: IGROV-1, 48 h
RXF 393 [7] = assay: Growth inhibition of human RXF393 cells assessed as cell growth at 0.1 uM incubated for 48 hrs by sulforhodamine B assay relative to control; assay type: functional; settings: RXF 393, 48 h, read-out: Activity
BT-549 [8] = assay: Growth inhibition of human BT549 cells assessed as cell growth at 1 uM incubated for 48 hrs by sulforhodamine B assay relative to control; assay type: functional; settings: BT-549, 48 h, read-out: Activity
SN12C = assay: Growth inhibition of human SN12C cells assessed as cell growth at 100 uM incubated for 48 hrs by sulforhodamine B assay relative to control; assay type: functional; settings: read-out: Activity
NCI/ADR-RES = assay: Growth inhibition of human NCI/ADR-RES cells incubated for 48 hrs by sulforhodamine B assay; assay type: functional, cell-based
RPMI-8226 = assay: Growth inhibition of human RPMI8226 cells assessed as cell growth at 1 uM incubated for 48 hrs by sulforhodamine B assay relative to control; assay type: functional; settings: RPMI-8226, 48 h, read-out: Activity
[9] = read-out: LC50 (the source's name)
[10] = read-out: pLC50 (the source's name) (converted)

O=C(Nc1cccc(-n2cc(-c3ccncc3)c(-c3cc(O)cc(Cl)c3)n2)c1)c1ccc(N2CCOCC2)c(C(F)(F)F)c1
growth at 0.01 µM (UACC-257): 91%
IC50 (PC-3): 1.09 µM
GI50 (PC-3; read-out: GI50): 1.09 µM
CC50 (PC-3; [9]): > 100 µM
TGI (PC-3; read-out: TGI): 45.6 µM
GI50 (PC-3; read-out: pGI50 (converted)): 1.1 µM
CC50 (PC-3; [10]): > 100 µM
TGI (PC-3; read-out: pTGI (converted)): 45.7 µM
IC50 (OVCAR-3): 7.2 µM
GI50 (OVCAR-3; read-out: GI50): 7.2 µM
CC50 (OVCAR-3; [9]): > 100 µM
TGI (OVCAR-3; read-out: TGI): > 100 µM
GI50 (OVCAR-3; read-out: pGI50 (converted)): 7.24 µM
CC50 (OVCAR-3; [10]): > 100 µM
TGI (OVCAR-3; read-out: pTGI (converted)): > 100 µM
growth at 1 µM (SF-539): 58%
GI50 (M14; read-out: GI50): 0.774 µM
CC50 (M14; [9]): 54.5 µM
TGI (M14; read-out: TGI): 21.4 µM
GI50 (M14; read-out: pGI50 (converted)): 0.776 µM
CC50 (M14; [10]): 8.51 µM
TGI (M14; read-out: pTGI (converted)): 2.75 µM
growth at 1 µM (MOLT-4): 54%
growth at 100 µM (CCRF-CEM): 2%
growth at 0.1 µM (HL-60(TB)): 114%
growth at 100 µM (HCC 2998): -28%
growth at 1 µM (RXF 393 [1]): 13%
GI50 (SR; read-out: GI50): 0.338 µM
CC50 (SR; [9]): > 100 µM
TGI (SR; read-out: TGI): 15.3 µM
GI50 (SR; read-out: pGI50 (converted)): 0.339 µM
CC50 (SR; [10]): > 100 µM
TGI (SR; read-out: pTGI (converted)): 1.82 µM
growth at 0.01 µM (786-0 [2]): 102%
GI50 (786-0 [3]; read-out: GI50): 2.24 µM
CC50 (786-0 [3]; [9]): 41 µM
TGI (786-0 [3]; read-out: TGI): 10.1 µM
GI50 (786-0 [3]; read-out: pGI50 (converted)): 2.24 µM
CC50 (786-0 [3]; [10]): 40.7 µM
TGI (786-0 [3]; read-out: pTGI (converted)): 10 µM
GI50 (NCI-H460; read-out: GI50): 0.797 µM
CC50 (NCI-H460; [9]): > 100 µM
TGI (NCI-H460; read-out: TGI): 34.8 µM
GI50 (NCI-H460; read-out: pGI50 (converted)): 0.794 µM
CC50 (NCI-H460; [10]): > 100 µM
TGI (NCI-H460; read-out: pTGI (converted)): 3.55 µM
growth at 0.01 µM (MDA-MB-468): 92%
growth at 0.01 µM (BT-549 [4]): 100%
growth at 0.01 µM (SW-620): 103%
growth at 1 µM (MCF7): 82%
GI50 (A498 [5]; read-out: GI50): 1.94 µM
CC50 (A498 [5]; [9]): > 100 µM
TGI (A498 [5]; read-out: TGI): 73.2 µM
GI50 (A498 [5]; read-out: pGI50 (converted)): 19.5 µM
CC50 (A498 [5]; [10]): > 100 µM
TGI (A498 [5]; read-out: pTGI (converted)): 72.4 µM
growth at 1 µM (ACHN): 52%
growth at 0.1 µM (A498 [6]): 85%
growth at 1 µM (HCT-116): 58%
GI50 (IGROV-1; read-out: GI50): 5.12 µM
CC50 (IGROV-1; [9]): > 100 µM
TGI (IGROV-1; read-out: TGI): > 100 µM
GI50 (IGROV-1; read-out: pGI50 (converted)): 5.13 µM
CC50 (IGROV-1; [10]): > 100 µM
TGI (IGROV-1; read-out: pTGI (converted)): > 100 µM
growth at 0.1 µM (RXF 393 [7]): 85%
growth at 1 µM (BT-549 [8]): 75%
growth at 100 µM (SN12C): 38%
GI50 (NCI/ADR-RES; read-out: GI50): 45.9 µM
CC50 (NCI/ADR-RES; [9]): > 100 µM
TGI (NCI/ADR-RES; read-out: TGI): > 100 µM
GI50 (NCI/ADR-RES; read-out: pGI50 (converted)): 4.57 µM
CC50 (NCI/ADR-RES; [10]): > 100 µM
TGI (NCI/ADR-RES; read-out: pTGI (converted)): > 100 µM
growth at 1 µM (RPMI-8226): 17%
